Measured values: PubChem BioAssay (NCI)
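Compound exposure: 48 hours, 5 concentrations, 96-well plates. Abbreviation: GI50, concentration required for 50% inhibition of growth. Definition used: TGI = concentration required for complete inhibition of growth.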 Where a SMILES comes first, the peptide text is derived from it. [ ]: non-standard residue; d: D form. 2Nal = N[CH](Cc1ccc2ccccc2c1)C(=O)O

Experiments:
Assay in all cases: NCI-60 cell line screen, 48 h
[1] = tested on: SW-620 colon
[2] = tested on: OVCAR-5 ovarian
[3] = tested on: KM12 colon
[4] = tested on: MDA-MB-435
[5] = tested on: RXF 393 renal
[6] = tested on: NCI/ADR-RES ovarian
[7] = tested on: OVCAR-4 ovarian
[8] = tested on: SF-268 CNS
[9] = tested on: NCI-H522 lung
[10] = tested on: NCI-H460 lung

Row | Structure (SMILES) | GI50 [1] | TGI [1] | GI50 [2] | TGI [2] | GI50 [3] | TGI [3] | GI50 [4] | TGI [4] | GI50 [5] | TGI [5] | GI50 [6] | TGI [6] | GI50 [7] | TGI [7] | GI50 [8] | TGI [8] | GI50 [9] | TGI [9] | GI50 [10] | TGI [10]
1 | CCOC(=O)c1cc(-c2ccc(OC)c(OC)c2)[nH]c1N/N=C/c1c(Cl)cccc1Cl | 2.5 µM | > 44.5 µM | 4.56 µM | 20.3 µM | 0.636 µM | 9.98 µM | 0.307 µM | 0.829 µM | 1.91 µM | 9.77 µM | 1.15 µM | 4.53 µM | 4.46 µM | > 62.7 µM | 2.29 µM | 39.9 µM | 2.27 µM | 30 µM | 1.35 µM | > 35.9 µM
2 | CC(C)(C)NC/C(=C\c1ccccc1)C(=O)c1ccccc1 | 1.22 µM | 3.5 µM | 2.33 µM | 4.48 µM | 3.01 µM | 24.4 µM | 2.51 µM | 12.8 µM |  | 2.37 µM | 2.31 µM | 10.8 µM | 5.6 µM | 19.6 µM | 3.8 µM | 21 µM | 0.371 µM | 1.77 µM | 1.88 µM | 4.57 µM
3 | COc1cc2ncn(-c3cc(OCc4ccccc4C(F)(F)F)c(C(C)=O)s3)c2cc1OC | > 25 µM | > 25 µM | > 25 µM | > 25 µM | > 25 µM | > 25 µM | 17.6 µM | > 25 µM | > 21.5 µM | > 25 µM | > 25 µM | > 25 µM | > 25 µM | > 25 µM | > 25 µM | > 25 µM | > 25 µM | > 25 µM | > 25 µM | > 25 µM
4 | CN(O)C(=S)c1ccccc1 |  | 14.6 µM |  | > 100 µM |  | 31.8 µM |  | > 100 µM |  | 14.5 µM |  | 7.88 µM |  | 19.6 µM |  | > 100 µM |  | 0.688 µM |  | 18.3 µM
5 | CC(O)CN1c2ccccc2Sc2ccc(Cl)cc21 (centres undefined) |  | > 10 µM |  | > 10 µM |  | > 10 µM |  | > 10 µM |  | > 10 µM |  | > 10 µM |  | > 10 µM |  | > 10 µM |  | > 10 µM |  | > 10 µM
6 | CC(C)C(NC(=O)C(CCCCN)NC(=O)C(Cc1c[nH]c2ccccc12)NC(=O)C(Cc1ccc(O)cc1)NC(=O)C(CS)NC(=O)C(N)Cc1ccc2ccccc2c1)C(=O)NC(CS)C(=O)NC(C(N)=O)C(C)O (centres undefined) (H-[2Nal]CYWKVCT-NH2; configuration not given here) | > 100 µM | > 100 µM |  | > 12.5 µM | > 100 µM | > 100 µM |  | > 12.5 µM | > 100 µM | > 100 µM |  | > 12.5 µM | > 100 µM | > 100 µM |  | > 12.5 µM |  | > 12.5 µM | > 100 µM | > 100 µM
7 | NNC(=S)Nc1cccc(Cl)c1 |  | > 100 µM |  | > 100 µM |  | > 100 µM |  | > 100 µM |  | > 100 µM |  | > 100 µM |  | > 100 µM |  | > 100 µM |  | > 100 µM |  | > 100 µM
8 | O=C(Cn1c(C(=O)c2ccccc2)nc2ccccc21)c1ccc(F)cc1 | 3.28 µM | > 100 µM | > 100 µM | > 100 µM | 2.48 µM | > 100 µM | 1.19 µM |  | 7.29 µM | > 56.9 µM | 3.47 µM | > 29.4 µM | 24.6 µM | > 100 µM | 19.6 µM | > 100 µM | 5.92 µM | > 62.9 µM | 12 µM | > 76 µM
9 | NC(=Nc1nc(-c2ccccn2)cc2ccccc12)c1ccccn1 | 0.0505 µM | > 100 µM | 0.176 µM | > 100 µM | 0.336 µM | > 56.7 µM | 0.283 µM | > 100 µM | 0.32 µM | 0.795 µM | 0.0434 µM |  | 0.0798 µM |  | 0.111 µM | 12.1 µM | 0.0458 µM |  | 0.099 µM | 
